From US20260297060A1, “COMPOUNDS FOR THE DEGRADATION OF MUTANT BRAF” (C4 THERAPEUTICS, INC., priority 2023, published 2026)

Legend:
[1] = tested on: A375-NRAS^Q61K cells; test: CTGlo Cell Viability Assay, A375-NRAS^Q61K (A375.11) cells, 96 hours; format: cell-based, human; details: A375.11 (A375-NRAS^Q61K) cells; for Emax / CTGlo A375.11 96 hours Emax: lowest % viability achieved
How it was run: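 Viability as CellTiter-Glo ATP luminescence after 96 h compound exposure at 37 °C; A375.11 (BRAF V600E/NRAS Q61K) cells at 250/well, top final concentration 10 μM in half-log steps. Signal was background-corrected and set relative to DMSO controls. A 4-parameter logistic fit gave GI50 (50% crossing) and Emax.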

[2] = target: T1, human bile salt export pump (BSEP) efflux transporter (Homo sapiens, UniProt O95342); test: BSEP Vesicular Transport Inhibition Assay (IC50 determination); format: biochemical; details: human BSEP (HEK293) vesicles, taurocholate 0.2 μM, 4 mM Mg-ATP, 10 concentrations, 1 replicate
T1 construct: purchased SOLVO Biotechnology Charles River Laboratories, Szeged, Hungary; host or cells: HEK293 (inside out membrane vesicles)
T1 sequence (O95342 whole entry): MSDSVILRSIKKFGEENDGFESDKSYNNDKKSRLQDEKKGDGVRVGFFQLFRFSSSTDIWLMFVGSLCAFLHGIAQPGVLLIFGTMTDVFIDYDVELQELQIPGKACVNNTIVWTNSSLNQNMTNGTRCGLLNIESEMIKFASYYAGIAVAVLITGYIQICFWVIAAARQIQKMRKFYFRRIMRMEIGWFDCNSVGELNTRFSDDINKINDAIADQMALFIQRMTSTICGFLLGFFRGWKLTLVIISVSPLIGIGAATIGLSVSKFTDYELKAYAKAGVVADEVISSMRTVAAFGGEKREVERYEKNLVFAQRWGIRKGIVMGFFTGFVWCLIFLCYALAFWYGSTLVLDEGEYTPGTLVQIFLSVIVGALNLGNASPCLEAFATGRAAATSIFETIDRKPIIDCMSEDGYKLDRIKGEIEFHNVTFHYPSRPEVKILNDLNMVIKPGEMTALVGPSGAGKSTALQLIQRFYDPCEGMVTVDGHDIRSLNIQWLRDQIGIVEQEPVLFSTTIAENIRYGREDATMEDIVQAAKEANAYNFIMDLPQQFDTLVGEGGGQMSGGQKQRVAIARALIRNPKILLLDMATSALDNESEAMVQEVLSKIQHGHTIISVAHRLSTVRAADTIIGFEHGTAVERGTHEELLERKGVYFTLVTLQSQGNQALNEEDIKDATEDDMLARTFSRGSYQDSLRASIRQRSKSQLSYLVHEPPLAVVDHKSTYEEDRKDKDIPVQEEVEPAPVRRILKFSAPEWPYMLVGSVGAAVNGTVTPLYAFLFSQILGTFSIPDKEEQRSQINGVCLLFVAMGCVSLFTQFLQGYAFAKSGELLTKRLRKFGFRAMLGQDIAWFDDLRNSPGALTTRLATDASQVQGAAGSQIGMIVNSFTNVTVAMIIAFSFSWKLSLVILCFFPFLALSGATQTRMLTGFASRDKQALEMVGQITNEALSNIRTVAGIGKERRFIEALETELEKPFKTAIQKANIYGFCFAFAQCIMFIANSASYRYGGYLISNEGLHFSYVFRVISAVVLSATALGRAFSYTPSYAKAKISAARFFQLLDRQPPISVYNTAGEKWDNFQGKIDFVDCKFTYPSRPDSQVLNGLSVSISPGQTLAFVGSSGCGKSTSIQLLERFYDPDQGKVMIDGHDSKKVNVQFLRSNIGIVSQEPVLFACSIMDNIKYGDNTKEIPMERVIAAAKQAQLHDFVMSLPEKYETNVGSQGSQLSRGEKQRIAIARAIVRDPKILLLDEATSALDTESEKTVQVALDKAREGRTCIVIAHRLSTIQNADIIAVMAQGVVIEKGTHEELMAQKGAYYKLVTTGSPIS
Method: The vesicular transport (VT) assays were performed using inside out membrane vesicles derived from HEK293 cells expressing the specified human bile salt export pump (BSEP) efflux transporter. The membrane vesicles were procured from SOLVO Biotechnology Charles River Laboratories, Szeged, Hungary.
The principle of the assay relies on measuring the accumulation of substrate into inside out vesicles containing the efflux transporter. By utilizing inside out vesicles, the ATP-dependent transport of substrate is directed into the vesicular lumen, where low permeability compounds are then essentially trapped.
For the IC50 screen inhibition assay, 10 concentrations of each compound were tested in the presence of ATP (active transport) in 1 replicate.
The solvent control (DMSO) was tested in the presence of ATP (active transport) and in the presence of AMP (background) in 8 replicates.
Vesicular transport inhibition assays were performed using the specific parameters for each transporter inhibition assay described in Table 53.
Table 54 specifies treatment groups and concentration of compounds, that were examined in the vesicular transport inhibition assay. Detailed data of IC50 screen inhibition assay are shown in Table 55 and detailed data of 1 concentration inhibition assay are shown in Table 56.
The vesicular transport inhibition assay was performed with 4 mM Mg-ATP. For the IC50 screen inhibition assay, 10 concentrations of each compound were tested in the presence of ATP in 1 replicate. For the 1 concentration inhibition assay, 1 concentration of each compound was tested in the presence of ATP (active transport) in 2 replicates. The solvent control (DMSO) was tested in the presence of 4 mM Mg-ATP (active transport) and in the presence of 4 mM AMP (background) in 8 replicates.
The BSEP membrane vesicle suspension was mixed with the ice-cold transport buffer, then the taurocholate probe substrate solution was added (Reaction mixture, 50 μL per well). The compounds were added to the reaction mixture at 1.5-times the final assay concentration. […].
Reaction mixtures and the start reagent (Mg-ATP or AMP in transport buffer) were pre-warmed separately for 15 minutes to reach the incubation temperature of 37° C. […]
The reaction was initiated by the addition of the start reagent (25 μL) to the reaction mixture (diluting the reaction mixture to the final concentration). […] After the 5-minute incubation at 37° C., the reaction was stopped by the addition of 250 μL ice-cold washing mix to each well. […]
The samples were then be transferred to a filter plate and washed with 200 μL cold washing mix5-times to remove any free compounds or taurocholate probe substrate. The amount of taurocholate probe substrate inside the filtered vesicles were determined by liquid scintillation counting. […]

Row | SMILES | GI50 ([1]; Homo sapiens, 96 h) [nM] | GI50 [1] [nM] | Emax ([1]; Homo sapiens, 96 h) [%] | BSEP Inhibition/IC50 [2] [nM] | BSEP Inhibition/IC50 ([2]; in nM) | CTGlo A375.11 96 hours Emax [1]
1 | CCN(C)S(=O)(=O)Nc1ccc(F)c(Oc2ccc3ncn([C@H]4COC5(CCN(C6CCC(c7cc8c(cc7F)c(N7CCC(=O)NC7=O)nn8C)CC6F)CC5)C4)c(=O)c3c2)c1C#N (single isomer, unassigned) [Compound 28] | < 1000 | – | < 50 | 1960 | – | –
2 | CCN(C)S(=O)(=O)Nc1ccc(F)c(Oc2ccc3ncn([C@@H]4CCC5(CCN(C6CCC(c7cc8c(cc7F)c(N7CCC(=O)NC7=O)nn8C)CC6)CC5)C4)c(=O)c3c2)c1C#N (single isomer, unassigned) [Compound 31] | 1000 to 10000 | – | < 50 | 4230 | – | –
3 | CCN(C)S(=O)(=O)Nc1ccc(F)c(Oc2ccc3ncn([C@H]4CCC5(CCN(C6CCC(c7cc8c(cc7F)c(N7CCC(=O)NC7=O)nn8C)CC6)CC5)C4)c(=O)c3c2)c1C#N (single isomer, unassigned) [Compound 33] | < 1000 | – | < 50 | – | 10060 | –
4 | CCN(C)S(=O)(=O)Nc1ccc(F)c(Oc2ccc3ncn([C@H]4COC5(CCC(N6CCC(c7cc8c(cc7F)c(N7CCC(=O)NC7=O)nn8C)C(F)(F)C6)CC5)C4)c(=O)c3c2)c1C#N (single isomer, unassigned) [Compound 38] | < 1000 | – | < 50 | – | 963.6 | –
5 | CCN(C)S(=O)(=O)Nc1ccc(F)c(Oc2ccc3ncn([C@H]4COC5(CCC(N6CCC(c7cc8c(cc7F)c(N7CCC(=O)NC7=O)nn8C)C(F)(F)C6)CC5)C4)c(=O)c3c2)c1C#N (single isomer, unassigned) [Compound 39] | – | < 1000 | – | 1560 | – | *** (<=50%)
6 | CCN(C)S(=O)(=O)Nc1ccc(F)c(Oc2ccc3ncc([C@@H]4COC5(CCN(C6CCC(c7cc8c(cc7F)c(N7CCC(=O)NC7=O)nn8C)CC6)CC5)C4)nc3c2)c1C#N (single isomer, unassigned) [Compound 54] | < 1000 | – | < 50 | – | 11010 | –
7 | CCN(C)S(=O)(=O)Nc1ccc(F)c(Oc2ccc3ncc([C@@H]4COC5(CCN(C6CCC(c7ccc(NC8CCC(=O)NC8=O)cc7F)CC6)CC5)C4)nc3c2)c1C#N (single isomer, unassigned) [Compound 60] | – | < 1000 | < 50 | 7880 | – | –

More lines, main results first:

Row | GI50 ([1]; Homo sapiens, 96 h) [nM] | GI50 [1] [nM] | SMILES | Emax ([1]; Homo sapiens, 96 h) [%] | BSEP Inhibition/IC50 [2] [nM] | BSEP Inhibition/IC50 ([2]; in nM) | CTGlo A375.11 96 hours Emax [1]
8 | < 1000 | – | CCN(C)S(=O)(=O)Nc1ccc(F)c(Oc2ccc3ncn([C@H]4COC5(CCN(C6CC(c7cc8c(cc7F)c(N7CCC(=O)NC7=O)nn8C)C6)CC5)C4)c(=O)c3c2)c1C#N (single isomer, unassigned) [Compound 70] | < 50 | 2080 | – | –
9 | < 1000 | – | CCN(C)S(=O)(=O)Nc1ccc(F)c(Oc2ccc3ncn(C4CC5(CCN(C6CCC(c7cc8c(cc7F)c(N7CCC(=O)NC7=O)nn8C)CC6F)CC5)C4)c(=O)c3c2)c1C#N (single isomer, unassigned) [Compound 83, 6-[2-cyano-3-[[ethyl(methyl)sulfamoyl]amino]-6-fluoro-phenoxy]-3-[7-[4-[3-(2,4-dioxohexahydropyrimidin-1-yl)-5-fluoro-1-methyl-indazol-6-yl]-2-fluoro-cyclohexyl]-7-azaspiro[3.5]nonan-2-yl]-4-oxo-quinazoline] | < 50 | – | 14100 | –
10 | – | < 1000 | CCN(C)S(=O)(=O)Nc1ccc(F)c(Oc2ccc3ncn(C4CC5(CCN(C6CCC(c7cc8c(cc7F)c(N7CCC(=O)NC7=O)nn8C)CC6F)CC5)C4)c(=O)c3c2)c1C#N (single isomer, unassigned) [Compound 85] | – | 9810 | – | *** (<=50%)
11 | – | < 1000 | CCN(C)S(=O)(=O)Nc1ccc(F)c(Oc2ccc3ncn(C4CC5(CCN(C6CCC(c7cc8c(cc7F)c(N7CCC(=O)NC7=O)nn8C)CC6F)CC5)C4)c(=O)c3c2)c1C#N (single isomer, unassigned) [Compound 86] | – | 9880 | – | *** (<=50%)
12 | < 1000 | – | Cn1nc(N2CCC(=O)NC2=O)c2cc(F)c(C3CCC(N4CCC5(CC4)CC(n4cnc6ccc(Oc7c(F)ccc(NS(=O)(=O)C8CCCC8)c7C#N)cc6c4=O)C5)CC3)cc21 (single isomer, unassigned) [Compound 93, N-[2-cyano-3-[3-[7-[4-[3-(2,4-dioxohexahydropyrimidin-1-yl)-5-fluoro-1-methyl-indazol-6-yl]cyclohexyl]-7-azaspiro[3.5]nonan-2-yl]-4-oxo-quinazolin-6-yl]oxy-4-fluoro-phenyl]cyclopentanesulfonamide] | < 50 | – | >40000 | –
13 | 1000 to 10000 | – | CCN(C)S(=O)(=O)Nc1ccc(F)c(Oc2ccc3ncc(OCC4CCN(C5CCC(c6cc7c(cc6F)c(N6CCC(=O)NC6=O)nn7C)CC5)CC4)nc3c2)c1C#N (single isomer, unassigned) [Compound 118, 7-[2-cyano-3-[[ethyl(methyl)sulfamoyl]amino]-6-fluoro-phenoxy]-2-[[1-[4-[3-(2,4-dioxohexahydropyrimidin-1-yl)-5-fluoro-1-methyl-indazol-6-yl]cyclohexyl]-4-piperidyl]methoxy]quinoxaline] | 50 to 90 | – | >40000 | –
14 | – | 1000 to 10000 | CN(CCO)S(=O)(=O)Nc1ccc(F)c(Oc2ccc3ncn(C4CC5(CCN(C6CCC(c7cc8c(cc7F)c(N7CCC(=O)NC7=O)nn8C)CC6F)CC5)C4)c(=O)c3c2)c1C#N (single isomer, unassigned) [Compound 145, 6-[2-cyano-6-fluoro-3-[[2-hydroxyethyl(methyl)sulfamoyl]amino]phenoxy]-3-[7-[4-[3-(2,4-dioxohexahydropyrimidin-1-yl)-5-fluoro-1-methyl-indazol-6-yl]-2-fluoro-cyclohexyl]-7-azaspiro[3.5]nonan-2-yl]-4-oxo-quinazoline] | 50 to 90 | – | 21630 | –
15 | < 1000 | – | CCN(C)S(=O)(=O)Nc1ccc(F)c(Oc2ccc3ncc([C@H]4COC5(CCN(C6CCC(c7cc8c(cc7F)c(N7CCC(=O)NC7=O)nn8C)CC6F)CC5)C4)nc3c2)c1C#N (single isomer, unassigned) [Compound 160] | 50 to 90 | 1580 | – | –
16 | < 1000 | – | CCN(C)S(=O)(=O)Nc1ccc(F)c(Oc2ccc3ncc(C4CC5(CCN(C6CCC(c7cc8c(cc7F)c(N7CCC(=O)NC7=O)nn8C)CC6)CC5)C4)nc3c2)c1C#N (single isomer, unassigned) [Compound 180, 7-[2-cyano-3-[[ethyl(methyl)sulfamoyl]amino]-6-fluoro-phenoxy]-2-[7-[4-[3-(2,4-dioxohexahydropyrimidin-1-yl)-5-fluoro-1-methyl-indazol-6-yl]cyclohexyl]-7-azaspiro[3.5]nonan-2-yl]quinoxaline] | < 50 | – | 12180 | –
17 | – | < 1000 | CCN(C)S(=O)(=O)Nc1ccc(F)c(Oc2ccc3ncn(C4CC5(C4)CN(C4CCC(c6cc7c(cc6F)c(N6CCC(=O)NC6=O)nn7C)CC4)C5)c(=O)c3c2)c1C#N (single isomer, unassigned) [Compound 204, 6-[2-cyano-3-[[ethyl(methyl)sulfamoyl]amino]-6-fluoro-phenoxy]-3-[2-[4-[3-(2,4-dioxohexahydropyrimidin-1-yl)-5-fluoro-1-methyl-indazol-6-yl]cyclohexyl]-2-azaspiro[3.3]heptan-6-yl]-4-oxo-quinazoline] | – | – | >40000 | ** (<90% and >50%)
